We go through four compounds from US12678471B2 (priority 2022, dated 2026).

Like-named read-outs stand apart in the source and are kept apart here.

Holding throughout (format): cell-based
Experiment [1] has as its system Omicron S protein pseudotyped lentivirus (spike protein of the SARS-CoV-2 Omicron variant). In words: microbe, parasite or virus in culture. The note with it: read-out: Half inhibition concentration of viral infection (IC50) Omicron.
For experiment [2], the system named is D614G S protein pseudotyped lentivirus (spike protein of the SARS-CoV-2 D614G variant). The note with it: read-out: Half inhibition concentration of viral infection (IC50) D614G.
In experiment [3] the test system is Delta S protein pseudotyped lentivirus (spike protein of the SARS-CoV-2 Delta variant). The note with it: ACE2-293T cells; virus pretreated with compound 1 hour at 37° C.; 24 hours infection; mean ± SD (n = 3); read-out: Half inhibition concentration of viral infection (IC50) Delta.

Take `COc1cc2c3cc1Oc1c(OC)c(OC)cc4c1[C@@H](Cc1ccc(O)c(c1)Oc1ccc(cc1)C[C@@H]3N(C)CC2)N(C)CC4` [Berbamine]: in experiment [1] (Lentivirus), the IC50 was determined as 2290 ± 290 nM.
Turning to `COc1cc2c3cc1Oc1c(O)c(OC)cc4c1[C@@H](Cc1ccc(O)c(c1)Oc1ccc(cc1)C[C@@H]3N(C)CC2)N(C)CC4` [Obamegine], the IC50 in experiment [1] (Lentivirus) is 1190 ± 160 nM; in experiment [2], 1400 ± 350 nM.
In the case of Aromoline, the IC50 in experiment [1] was 860 ± 120 nM; in experiment [3], 470 ± 80 nM.
In the case of Bersavine, the IC50 in experiment [1] stood at 1710 ± 340 nM; in experiment [3] it was 2860 ± 130 nM; in experiment [2], 1240 ± 170 nM.
